Measured values from patent US11793849B2, “Method of Chinese herbal medicine extract used for treating multiple diseases caused by drug resistant bacteria infection” (priority 2016, dated 2023).
≈ marks a conversion by molar mass, not a printed value. Where two headings read alike, the source gives them in different places.

Tested on: MDRAB
Test: MIC determination, microdilution broth method
Type: cell-based, Acinetobacter baumannii
Settings: Acinetobacter baumannii
Experimental: Determination methods of a Minimal Inhibitory Concentration (MIC) and a Minimum Bactericidal Concentration (MBC) of a test product: the MIC and the MBC of the Pithecellobium clypearia Benth water or ethanol extract to the MDRAB are determined by a microdilution broth method. And it is operated by referring to the microdilution broth method recommended by National Committee for Clinical Laboratory Standards (NCCLS).

Structure (SMILES): C[C@H]1COc2c(N3CCN(C)CC3)c(F)cc3c(=O)c(C(=O)O)cn1c23 [LVX, Levofloxacin]
- MIC (strain A1, EA=60% ethanol extract, read-out: MIC): 0.5 µg/mL (≈ 1.38 µM)
- MIC (strain A1, EA=95% ethanol extract, read-out: MIC): 0.5 µg/mL (≈ 1.38 µM)
- MIC (strain A1, EA=P. clypearia 95% ethanol extract, read-out: single-use MIC): 0.5 µg/mL (≈ 1.38 µM)
- MIC (strain A1, single use, EA=10% ethanol extract, read-out: MIC): 0.5 µg/mL (≈ 1.38 µM)
- MIC (strain A1, single use, EA=water extract, read-out: MIC): 0.5 µg/mL (≈ 1.38 µM)
- MIC (strain A2, EA=60% ethanol extract, read-out: MIC): 16 µg/mL (≈ 44.3 µM)
- MIC (strain A2, EA=95% ethanol extract, read-out: MIC): 16 µg/mL (≈ 44.3 µM)
- MIC (strain A2, EA=P. clypearia 95% ethanol extract, read-out: single-use MIC): 16 µg/mL (≈ 44.3 µM)
- MIC (strain A2, single use, EA=10% ethanol extract, read-out: MIC): 16 µg/mL (≈ 44.3 µM)
- MIC (strain A2, single use, EA=water extract, read-out: MIC): 16 µg/mL (≈ 44.3 µM)
- MIC (strain A3, EA=60% ethanol extract, read-out: MIC): 4 µg/mL (≈ 11.1 µM)
- MIC (strain A3, EA=95% ethanol extract, read-out: MIC): 4 µg/mL (≈ 11.1 µM)
- MIC (strain A3, EA=P. clypearia 95% ethanol extract, read-out: single-use MIC): 16 µg/mL (≈ 44.3 µM)
- MIC (strain A3, single use, EA=10% ethanol extract, read-out: MIC): 4 µg/mL (≈ 11.1 µM)
- MIC (strain A4, EA=60% ethanol extract, read-out: MIC): 0.5 µg/mL (≈ 1.38 µM)
- MIC (strain A4, EA=95% ethanol extract, read-out: MIC): 0.5 µg/mL (≈ 1.38 µM)
- MIC (strain A4, EA=P. clypearia 95% ethanol extract, read-out: single-use MIC): 0.5 µg/mL (≈ 1.38 µM)
- MIC (strain A4, single use, EA=10% ethanol extract, read-out: MIC): 0.5 µg/mL (≈ 1.38 µM)
- MIC (strain A4, single use, EA=water extract, read-out: MIC): 0.5 µg/mL (≈ 1.38 µM)
- MIC (strain A5, EA=60% ethanol extract, read-out: MIC): 4 µg/mL (≈ 11.1 µM)
- MIC (strain A5, EA=95% ethanol extract, read-out: MIC): 4 µg/mL (≈ 11.1 µM)
- MIC (strain A5, single use, EA=10% ethanol extract, read-out: MIC): 4 µg/mL (≈ 11.1 µM)
- MIC (strain A5, single use, EA=water extract, read-out: MIC): 4 µg/mL (≈ 11.1 µM)
- MIC (strain A6, EA=60% ethanol extract, read-out: MIC): 8 µg/mL (≈ 22.1 µM)
- MIC (strain A6, EA=95% ethanol extract, read-out: MIC): 8 µg/mL (≈ 22.1 µM)
- MIC (strain A6, EA=P. clypearia 95% ethanol extract, read-out: single-use MIC): 8 µg/mL (≈ 22.1 µM)
- MIC (strain A6, single use, EA=10% ethanol extract, read-out: MIC): 8 µg/mL (≈ 22.1 µM)
- MIC (strain A6, single use, EA=water extract, read-out: MIC): 8 µg/mL (≈ 22.1 µM)
- MIC (strain A7, EA=60% ethanol extract, read-out: MIC): 8 µg/mL (≈ 22.1 µM)
- MIC (strain A7, EA=95% ethanol extract, read-out: MIC): 8 µg/mL (≈ 22.1 µM)
- MIC (strain A7, EA=P. clypearia 95% ethanol extract, read-out: single-use MIC): 8 µg/mL (≈ 22.1 µM)
- MIC (strain A7, single use, EA=10% ethanol extract, read-out: MIC): 8 µg/mL (≈ 22.1 µM)
- MIC (strain A7, single use, EA=water extract, read-out: MIC): 8 µg/mL (≈ 22.1 µM)
- MIC (strain A8, EA=60% ethanol extract, read-out: MIC): 4 µg/mL (≈ 11.1 µM)
- MIC (strain A8, EA=95% ethanol extract, read-out: MIC): 4 µg/mL (≈ 11.1 µM)
- MIC (strain A8, EA=P. clypearia 95% ethanol extract, read-out: single-use MIC): 4 µg/mL (≈ 11.1 µM)
- MIC (strain A8, single use, EA=10% ethanol extract, read-out: MIC): 4 µg/mL (≈ 11.1 µM)
- MIC (strain A8, single use, EA=water extract, read-out: MIC): 4 µg/mL (≈ 11.1 µM)
- MIC (strain A9, EA=60% ethanol extract, read-out: MIC): 4 µg/mL (≈ 11.1 µM)
- MIC (strain A9, EA=95% ethanol extract, read-out: MIC): 4 µg/mL (≈ 11.1 µM)
- MIC (strain A9, EA=P. clypearia 95% ethanol extract, read-out: single-use MIC): 4 µg/mL (≈ 11.1 µM)
- MIC (strain A9, single use, EA=10% ethanol extract, read-out: MIC): 4 µg/mL (≈ 11.1 µM)
- MIC (strain A9, single use, EA=water extract, read-out: MIC): 4 µg/mL (≈ 11.1 µM)
- MIC (strain A10, EA=60% ethanol extract, read-out: MIC): 32 µg/mL (≈ 88.6 µM)
- MIC (strain A10, EA=95% ethanol extract, read-out: MIC): 32 µg/mL (≈ 88.6 µM)
- MIC (strain A10, EA=P. clypearia 95% ethanol extract, read-out: single-use MIC): 32 µg/mL (≈ 88.6 µM)
- MIC (strain A10, single use, EA=10% ethanol extract, read-out: MIC): 32 µg/mL (≈ 88.6 µM)
- MIC (strain A10, single use, EA=water extract, read-out: MIC): 32 µg/mL (≈ 88.6 µM)
- MIC (strain A11, EA=60% ethanol extract, read-out: MIC): 4 µg/mL (≈ 11.1 µM)
- MIC (strain A11, EA=95% ethanol extract, read-out: MIC): 4 µg/mL (≈ 11.1 µM)
- MIC (strain A11, EA=P. clypearia 95% ethanol extract, read-out: single-use MIC): 4 µg/mL (≈ 11.1 µM)
- MIC (strain A11, single use, EA=10% ethanol extract, read-out: MIC): 4 µg/mL (≈ 11.1 µM)
- MIC (strain A11, single use, EA=water extract, read-out: MIC): 4 µg/mL (≈ 11.1 µM)
- MIC (strain A12, EA=60% ethanol extract, read-out: MIC): 32 µg/mL (≈ 88.6 µM)
- MIC (strain A12, EA=95% ethanol extract, read-out: MIC): 32 µg/mL (≈ 88.6 µM)
- MIC (strain A12, EA=P. clypearia 95% ethanol extract, read-out: single-use MIC): 32 µg/mL (≈ 88.6 µM)
- MIC (strain A12, single use, EA=10% ethanol extract, read-out: MIC): 32 µg/mL (≈ 88.6 µM)
- MIC (strain A12, single use, EA=water extract, read-out: MIC): 32 µg/mL (≈ 88.6 µM)
- MIC (strain A13, EA=60% ethanol extract, read-out: MIC): 32 µg/mL (≈ 88.6 µM)
- MIC (strain A13, EA=95% ethanol extract, read-out: MIC): 32 µg/mL (≈ 88.6 µM)
- MIC (strain A13, EA=P. clypearia 95% ethanol extract, read-out: single-use MIC): 32 µg/mL (≈ 88.6 µM)
- MIC (strain A13, single use, EA=10% ethanol extract, read-out: MIC): 32 µg/mL (≈ 88.6 µM)
- MIC (strain A13, single use, EA=water extract, read-out: MIC): 32 µg/mL (≈ 88.6 µM)
- MIC (strain A14, EA=60% ethanol extract, read-out: MIC): 16 µg/mL (≈ 44.3 µM)
- MIC (strain A14, EA=95% ethanol extract, read-out: MIC): 16 µg/mL (≈ 44.3 µM)
- MIC (strain A14, EA=P. clypearia 95% ethanol extract, read-out: single-use MIC): 16 µg/mL (≈ 44.3 µM)
- MIC (strain A14, single use, EA=10% ethanol extract, read-out: MIC): 16 µg/mL (≈ 44.3 µM)
- MIC (strain A14, single use, EA=water extract, read-out: MIC): 16 µg/mL (≈ 44.3 µM)
- MIC (strain A15, EA=60% ethanol extract, read-out: MIC): 32 µg/mL (≈ 88.6 µM)
- MIC (strain A15, EA=95% ethanol extract, read-out: MIC): 32 µg/mL (≈ 88.6 µM)
- MIC (strain A15, EA=P. clypearia 95% ethanol extract, read-out: single-use MIC): 32 µg/mL (≈ 88.6 µM)
- MIC (strain A15, single use, EA=10% ethanol extract, read-out: MIC): 32 µg/mL (≈ 88.6 µM)
- MIC (strain A15, single use, EA=water extract, read-out: MIC): 32 µg/mL (≈ 88.6 µM)
- MIC (strain A16, EA=60% ethanol extract, read-out: MIC): 8 µg/mL (≈ 22.1 µM)
- MIC (strain A16, EA=95% ethanol extract, read-out: MIC): 8 µg/mL (≈ 22.1 µM)
- MIC (strain A16, EA=P. clypearia 95% ethanol extract, read-out: single-use MIC): 8 µg/mL (≈ 22.1 µM)
- MIC (strain A16, single use, EA=10% ethanol extract, read-out: MIC): 8 µg/mL (≈ 22.1 µM)
- MIC (strain A16, single use, EA=water extract, read-out: MIC): 8 µg/mL (≈ 22.1 µM)
- MIC (strain A17, EA=60% ethanol extract, read-out: MIC): 16 µg/mL (≈ 44.3 µM)
- MIC (strain A17, EA=95% ethanol extract, read-out: MIC): 16 µg/mL (≈ 44.3 µM)
- MIC (strain A17, EA=P. clypearia 95% ethanol extract, read-out: single-use MIC): 16 µg/mL (≈ 44.3 µM)
- MIC (strain A17, single use, EA=10% ethanol extract, read-out: MIC): 16 µg/mL (≈ 44.3 µM)
- MIC (strain A17, single use, EA=water extract, read-out: MIC): 16 µg/mL (≈ 44.3 µM)
- MIC (strain A18, EA=60% ethanol extract, read-out: MIC): 8 µg/mL (≈ 22.1 µM)
- MIC (strain A18, EA=95% ethanol extract, read-out: MIC): 8 µg/mL (≈ 22.1 µM)
- MIC (strain A18, EA=P. clypearia 95% ethanol extract, read-out: single-use MIC): 8 µg/mL (≈ 22.1 µM)
- MIC (strain A18, single use, EA=10% ethanol extract, read-out: MIC): 8 µg/mL (≈ 22.1 µM)
- MIC (strain A18, single use, EA=water extract, read-out: MIC): 8 µg/mL (≈ 22.1 µM)
- MIC (strain A19, EA=60% ethanol extract, read-out: MIC): 16 µg/mL (≈ 44.3 µM)
- MIC (strain A19, EA=95% ethanol extract, read-out: MIC): 16 µg/mL (≈ 44.3 µM)
- MIC (strain A19, EA=P. clypearia 95% ethanol extract, read-out: single-use MIC): 16 µg/mL (≈ 44.3 µM)
